# Test results published in patent US20120122854A1, “Carbocyclic Fused Cyclic Amines” (priority 2005, published 2012).
# Molecular target: T1, human factor Xa (Homo sapiens, UniProt P00742)
# T1 construct: purchased Enzyme Research Laboratories
# Test: Factor Xa chromogenic peptide substrate (S-2222) assay
# Assay type: biochemical
# Details: human factor Xa 3 nM, chromogenic substrate S-2222, pH 7.8, room temperature; apparent Ki from IC50 by Cheng-Prusoff
# Method: Factor Xa activity was measured spectrophotometrically in microtiter plates in a final volume of 150 μl using the following conditions: Inhibition of human factor Xa (Enzyme Research Laboratories) was tested at an enzyme concentration of 3 nM using the chromogenic substrate S-2222 (Chromogenix AB, Mölndal, Sweden) at […]. The reaction kinetics of the enzyme and the substrate were linear with both time and the enzyme concentration. The inhibitors were dissolved in DMSO and tested at various concentrations up to 100 μM. The inhibitors were diluted using HNPT buffer consisting of HEPES100 mM, NaCl 140 mM, PEG 6000 0.1% and Tween 80 0.02%, pH 7.8. The cleavage of S-2222 by human factor Xa was followed at 405 nm for 5 minutes at room temperature. The velocity of the reaction was determined by the autoreader from the slope of the linear regression fit to 7 time points (1 minute). The initial velocity for each inhibitor concentration was determined by the slope of at least 4 time points in the linear phase by a linear regression fit […]. Apparent dissociation constants Ki were calculated according to Cheng and Prusoff [Cheng, Y. C.; Prusoff, W. H. Relationship between the inhibition constant (Ki) and the concentration of the inhibitor that causes 50 percent inhibition (IC50) of an enzyme reaction. Biochem. Pharmacol. 1973, 22, 3099-3108.] based on the IC50 and the respective Km, determined previously (Ki=IC50/(1+S/Km)). The Km for the substrate used was determined under the conditions of the test with at least 5 substrate concentrations ranging from 0.5 to 15 times Km. [Lottenberg R, Hall J A, Blinder M, Binder E P, Jackson C M., The action of thrombin on peptide p-nitroanilide substrates. Substrate selectivity and examination of hydrolysis under different reaction conditions. Biochim Biophys Acta. 1983 Feb. 15; 742(3):539-57]. According to Eadie [Eadie G. S. The inhibition of cholinesterase by physostigmine and prostigmine. J. Biol. Chem. 1942, 146, 85-93.], the Km for S-2222 amounted to 613 μM.
# T1 sequence (P00742 235-488 limits assumed): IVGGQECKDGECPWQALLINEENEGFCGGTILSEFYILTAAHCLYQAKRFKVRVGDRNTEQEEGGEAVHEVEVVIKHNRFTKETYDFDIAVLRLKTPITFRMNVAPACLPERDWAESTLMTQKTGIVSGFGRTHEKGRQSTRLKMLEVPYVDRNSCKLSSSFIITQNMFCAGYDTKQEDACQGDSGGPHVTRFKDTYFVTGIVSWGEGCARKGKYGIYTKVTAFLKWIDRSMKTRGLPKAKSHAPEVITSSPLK
# T1 sequence (P00742 41-179 partner limits assumed): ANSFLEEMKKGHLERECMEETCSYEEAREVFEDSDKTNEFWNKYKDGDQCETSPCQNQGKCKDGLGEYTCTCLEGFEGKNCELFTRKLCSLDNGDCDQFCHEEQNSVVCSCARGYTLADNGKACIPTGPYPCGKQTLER
row,SMILES,Ki
1,"O=C(NCC1CN(C(=O)Nc2ccc(-n3ccccc3=O)cc2F)c2cccc(Cl)c21)c1ccc(Cl)s1 (stereo not drawn) [Example 44, 4-Chloro-3-{[(5-chloro-thiophene-2-carbonyl)-amino]-methyl}-2,3-dihydro-indole-1-carboxylic acid [2-fluoro-4-(2-oxo-2H-pyridin-1-yl)-phenyl]-amide]",2 nM
2,"O=C(Nc1ccc(-n2ccccc2=O)cc1)C1c2ccccc2CN1C(=O)Nc1ccc(Cl)cc1 (stereo in doubt) [Example 4, (S)-1,3-Dihydro-isoindole-1,2-dicarboxylic acid 2-[(4-chloro-phenyl)-amide]1-{[4-(2-oxo-2H-pyridin-1-yl)-phenyl]-amide}]",2 nM
3,"O=C(Nc1ccc(-n2ccccc2=O)cc1F)[C@H]1Cc2ccccc2CN1C(=O)Nc1ccc(Cl)cc1 [Example 25, (R)-3,4-Dihydro-1H-isoquinoline-2,3-dicarboxylic acid 2-[(4-chloro-phenyl)-amide]3-{[2-fluoro-4-(2-oxo-2H-pyridin-1-yl)-phenyl]-amide}]",2 nM
